According to ChEMBL document CHEMBL2321745, “Synthesis and biological evaluation of substituted benzoxazoles as inhibitors of mPGES-1: use of a conformation-based hypothesis to facilitate compound design” (Bioorg Med Chem Lett, 2013):

Columns and labels:
[1] = Oral bioavailability in Sprague-Dawley rat at 1 mg/kg; type: ADME, organism-based; details: in vivo
[2] = Half life in Sprague-Dawley rat at 1 mg/kg, po; type: ADME, organism-based; parameters: dose 1 mg/kg, route oral; details: in vivo
[3] = Mean residence time in Sprague-Dawley rat at 1 mg/kg, po; type: ADME, organism-based; parameters: dose 1 mg/kg, route oral; details: in vivo
[4] = Clearance in Sprague-Dawley rat at 1 mg/kg, iv; type: ADME, organism-based; parameters: dose 1 mg/kg, route intravenous; details: in vivo
[5] = Apparent intrinsic clearance in human liver microsomes; type: ADME, Microsome; details: read-out: CLH(app)
[6] = Volume of distribution at steady state in Sprague-Dawley rat at 1 mg/kg, iv; type: ADME, organism-based; parameters: dose 1 mg/kg, route intravenous; details: in vivo, read-out: Vdss
[7] = Cmax in Sprague-Dawley rat at 1 mg/kg, po; type: ADME, organism-based; parameters: dose 1 mg/kg, route oral; details: in vivo
[8] = AUC (infinity) in Sprague-Dawley rat at 1 mg/kg, po; type: ADME, organism-based; parameters: time infinity, dose 1 mg/kg, route oral; details: plasma

SMILES | bioavailability [1] [%] | half-life [2] [h] | MRT [3] [h] | clearance [4] [mL/min/kg] | CLint scaled [5] [mL/min/kg] | Vd [6] [L/kg] | Cmax [7] [nM] | AUC(0-inf) [8] [µM·h]
Cc1cc2oc(N3CCC(C(=O)N[C@H]4CCC[C@H](C(C)(C)O)C4)CC3)nc2cc1Cl | 15 | 0.54 | 0.78 | 44 | 223 | 2 |  | 
CC(C)(O)[C@H]1CCC[C@H](NC(=O)C2CCN(c3nc4cc(Cl)c(C(F)(F)F)cc4o3)CC2)C1 | 38 | 5.4 | 3.6 | 30 | 98 | 4.6 | 120 | 0.45
CS(=O)(=O)[C@H]1CCC[C@H](NC(=O)C2CCN(c3nc4cc(Cl)c(C(F)(F)F)cc4o3)CC2)C1 | 30 | 17 | 6.5 | 9.4 | 4.6 | 2.1 | 150 | 1.1
O=C(N[C@H]1CCC[C@H](CO)C1)C1CCN(c2nc3cc(Cl)c(-c4ccc(Cl)cc4)cc3o2)CC1 | 42 |  | 6.8 |  |  | 2.9 | 200 | 1.9
